Test results as given in patent US4822791A, “Pharmaceutical compositions of-2,2-1,1-[bis-2,2'-(3,1-benzoxazin-4-one)9 ethylenes” (priority 1984, dated 1989).
Values joined by “and” are separate entries in the source; they are usually repeats but may differ in a detail not shown here. Equal values may be shown once. Read-outs that look alike come from different tables or passages of the source.

Columns and labels:
hyaluronidase = molecular target: T1, hyaluronidase (Bos taurus, UniProt Q2YDK3); test: Anti-hyaluronidase activity (modified Morgan-Elson method); format: biochemical; details: hyaluronidase 340NF unit/ml; activating agent Compound 48/80 or CaCl2; read-out: IC50
T1 sequence (Q2YDK3 36-553): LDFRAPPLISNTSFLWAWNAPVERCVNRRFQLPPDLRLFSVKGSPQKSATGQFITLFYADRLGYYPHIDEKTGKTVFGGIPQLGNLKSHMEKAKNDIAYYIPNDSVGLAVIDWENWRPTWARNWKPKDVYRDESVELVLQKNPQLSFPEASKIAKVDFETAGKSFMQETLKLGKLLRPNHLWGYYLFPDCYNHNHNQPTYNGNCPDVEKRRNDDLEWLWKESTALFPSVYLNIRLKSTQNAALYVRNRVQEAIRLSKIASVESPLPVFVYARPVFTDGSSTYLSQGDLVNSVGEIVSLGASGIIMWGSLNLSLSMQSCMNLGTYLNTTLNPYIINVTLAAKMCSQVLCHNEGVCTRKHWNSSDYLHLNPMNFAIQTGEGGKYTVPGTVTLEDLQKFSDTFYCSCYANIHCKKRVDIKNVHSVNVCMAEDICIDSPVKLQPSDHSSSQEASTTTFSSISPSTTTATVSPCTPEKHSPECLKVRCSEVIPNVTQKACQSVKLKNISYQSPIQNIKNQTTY

[1] = system: passive cutaneous anaphylaxis (PCA); test: Anti-passive cutaneous anaphylaxis (PCA) activity in rats (Test Example 2); format: in vivo, Wistar strain rats; details: Rattus norvegicus, N 10; for inhibition in vivo at 10 mg/kg: 10 mg/kg PO; for inhibition in vivo at 50 mg/kg: 50 mg/kg PO; for inhibition in vivo at 100 mg/kg: 100 mg/kg PO
Method in brief: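 Antiserum from Wistar rats sensitized with ovalbumin (alum plus B. pertussis adjuvant) was diluted 16- or 32-fold and injected into dorsal skin of naive rats, which were held 48 h. Compound was given orally 1 h before i.v. ovalbumin plus Evans blue.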

[2] = system: anaphylaxis reaction to inhalated antigen; test: Antigen inhalation test on passive sensitized guinea pig (experimental asthma model); format: in vivo; details: 200 mg/kg po
Method: The test compound and Tranilast were respectively suspended at the time of use in 5% gum arabic solution containing 0.1% Tween 80 at the rate of 40 mg/ml, and were perorally administered at the rate of 0.5 ml per 100 g body weight of the animal.
DSCG was dissolved at the time of use in physiological saline solultion for injection at the rate of 5.0 mg/ml, and was intravenously injected at the rate of 0.1 ml per 100 g body weight of the animal.
Anti-ovalbumin rabbit serum diluted with physiological saline solution for injection so as tc contain anti-ovalbumin rabbit antibody at the rate of 0.187 mg N/ml was intravenously administered to guinea pig at the rate of 0.1 ml per 100 g of body weight and it was passively sensitized.
Twenty-four hours later, the suspension of the compound prepared in (1) above was perorally or intravenously administered to the animal. The animal was put in the inhalation chamber one hour after the administration in case of the peroral administration and five minutes after the administration in case of the intravenous administration, and 2% physiological saline solution of antigen ovalbumin was inhaled by spraying. Over 10 minutes' period from the time immediately after the forced inhalation, the time until its fall attributed to anaphylaxis reaction was recorded, and the numbers of alive and dead animals after lapse of 10 minutes were also counted.

SRS-A = test: Anti-SRS-A activity, contraction of guinea pig ileum by crude SRS-A solution; design: key to Anti-SRS-A activity (rate of inhibition against the contraction amount): % inhibition of SRS-A-induced ileum contraction
Method: A piece of lungs of guinea pig sensitized with ovalbumin was incubated with antigen ovalbumin at 37° C. for 20 minutes to obtain a supernatant solution, which was used as a crude SRS-A solution.
A piece of ileum of normal guinea pig was suspended in Magnus tube filled with Tyrode's solution and incubated with the solution of drug to be examined for a certain duration, and the contraction of the piece of ileum induced by adding the above crude SRS-A solution was determined on the basis of the contraction rate attributed to hystamine dihydrochloride 10^-6 M. The rate of inhibition against the contraction amount was taken as anti-SRS-A activity.

[3] = system: mast cell in abdominal cavity; test: Inhibition of histamine release from mast cell in abdominal cavity in rat (Test Example 6); format: cell-based
Method: Examination was made on the activity of inhibition of histamine release from mast cell by antigen-antibody reaction.
Swine ascaris extract solution was dinitrophenylated according to Aisen's method, dialysed, and lyophilized. The product was administered as antigen together with Bordetella Pertussis vaccine subcutaneously into the foot pad of rat. Eight days later, blood was taken to obtain antiserum. The PCA titer for this antiserum in rat was 32 to 64.
Heparin-containing PBS was injected intraperitoneally to rat which was sacrificed by exsanguination, after which the abdomen was well massaged to collect the injected PBS, which was purified by washing several times by centrifugation. The number of the mast cells contained in the solution was determined and adjusted to the designed concentration. As to method of sensitizing the cell, the above cell suspension (6 ml, 2×10^6 cells/ml) was treated with anti-DNP-Ascaris rat serum (PCA titer 32) (6 ml) and the mixture was incubated in the presence of hepain at 37° C. for 2 hours.
To the sensitized mast cell suspension the solution of the drug to be tested was added, and the mixture was preliminarily incubated at 37° C. for 12 minutes. After addition of the solution of antigen DNP-Ascaris (final concentration, 20 microgramms/ml), the mixture was further incubated for 20 minutes. After completion of the reaction, the solution was centrifuged (500 G, 10 min.) under a low temperature to obtain a supernatant solution. Histamine contained in the supernatant solution was subjected to fluorometry by crthophthalaldehyde method.

[4] = system: passive systemic anaphylaxis (PSA); test: Preventive activity against passive systemic anaphylaxis (PSA) in guinea pig; format: in vivo, Hartley strain female guinea pig
Method: Effect of the compound on prevention of death by passive systemic anaphylaxis was examined in guinea pig.
Normal Hartley strain female guinea pig (body weight, 240-260 g) was sensitized by intravenous administraticn of anti-ovalbumin rabbit serum. It was perorally administered with the compound 11 in the amount of 200 mg/kg. One hour later, it was intravenously administered with 2% physiological saline solution of antigen ovalbumin at the rate of 0.05 ml. Thereafter, the state was observed, and the time (seconds) until death was measured.

[5] = Acute toxicity LD50 in mice (Test Example 8); details: mouse, in vivo, one week, Probit method
Method: (§1) ddy-Strain mice (male) and Wistar strain rats were used to obtain LD50 values.
(§2) According to the ordinary procedure, suspension or solution of test sample was administered to the animals. From the number of the died animals until one week after the administration, LD50 values were obtained by Probit method.

[6] = Acute toxicity LD50 in rats (Test Example 8); details: rat, in vivo, po; one week; Probit method; read-out: LD50 value (mg/kg body weight) Rat p.o.
Method: as §1, §2

[7] = system: passive cutaneous anaphylaxis (PCA); test: Anti-passive cutaneous anaphylaxis activity (PCA) in rats (Test Example 9); format: in vivo; details: Rattus norvegicus, po, 50 mg/kg, 10 animals
Method in brief: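 Antiserum came from Wistar rats sensitized with ovalbumin (aluminium hydroxide plus B. pertussis adjuvant) and bled at day 14. It was diluted 12- and 24-fold and injected into the dorsal skin of naive rats 48 h before challenge.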

[8] = read-out: Average Inhibition Rate (%) Antiserum Dilution: × 16
[9] = read-out: Average Inhibition Rate (%) Antiserum Dilution: × 32

O=C(Nc1ccccc1C(=O)O)C(=Cc1ccccc1)C(=O)Nc1ccccc1C(=O)O [Compound 11, 2,2'-[(1,3-dioxo-2-phenylmethylene-1,3-propanediyl)diimino]bisbenzoic acid]
IC50 (hyaluronidase): 22 µM
inhibition in vivo at 10 mg/kg [1, 8]: 23.2%
inhibition in vivo at 10 mg/kg [1, 9]: 33.1%
inhibition in vivo at 50 mg/kg [1, 8]: 41.4%
inhibition in vivo at 50 mg/kg [1, 9]: 39.1%
inhibition in vivo at 100 mg/kg [1, 8]: 52.9%
inhibition in vivo at 100 mg/kg [1, 9]: 53.5%
Extended rate (%) [2]: 43.5%
preventive effect on anaphylaxis reaction (in words) [2]: strong preventive effect
Average time for falling Mean ± S.E. ([2]; N 5): 223.0 ± 15.7 s
Required time (sec.) for falling and Number of death (#), single animals ([2]; N 5, observed 10 minutes, # shows death): 194 s and 227 s and 248 s and > 600 s
Anti-SRS-A activity (rate of inhibition against the contraction amount) (SRS-A; 10^-3 M): 31.8
Anti-SRS-A activity (rate of inhibition against the contraction amount) (SRS-A; 10^-4 M): 0
Anti-SRS-A activity (rate of inhibition against the contraction amount) (SRS-A; 10^-5 M): 0
Anti-SRS-A activity (rate of inhibition against the contraction amount) (SRS-A; 10^-6 M): 0
anti-SRS-A activity (in words) (SRS-A; compound 11 at a concentration of 10^-3 M): moderate anti-SRS-A activity
activity at 1000 µM ([3]; Rattus norvegicus, Mast cell, 20 min, 10^-3 M, DNP-Ascaris 20 microgramms/ml, read-out: Amount of histamine released from peritoneal mast cell (Control = 100)): 13%
activity at 100 µM ([3]; Rattus norvegicus, Mast cell, 20 min, 10^-4 M, DNP-Ascaris 20 microgramms/ml, read-out: Amount of histamine released from peritoneal mast cell (Control = 100)): 59%
activity at 10 µM ([3]; Rattus norvegicus, Mast cell, 20 min, 10^-5 M, DNP-Ascaris 20 microgramms/ml, read-out: Amount of histamine released from peritoneal mast cell (Control = 100)): 51%
activity at 1 µM ([3]; Rattus norvegicus, Mast cell, 20 min, 10^-6 M, DNP-Ascaris 20 microgramms/ml, read-out: Amount of histamine released from peritoneal mast cell (Control = 100)): 55%
inhibition of release of histamine from the mast cell (in words) ([3]; even at the low concentration of 10^-6 M): inhibiting release of histamine
average living time ([4]; 200 mg/kg perorally, control group 294.9 seconds): 441.7 s
Extended rate (%) ([4]; 200 mg/kg po): 49.8%
anti-PSA activity (in words) ([4]; 200 mg/kg po): statistically significant anti-PSA activity
Ave. time to death Mean ± S.E. ([4]; 200 mg/kg po, N 10): 441.70 ± 21.5 s
Required time (sec.) to death, single animals ([4]; 200 mg/kg po, N 10): 431 s and 548 s and 488 s and 475 s and 367 s and 492 s and 485 s and 352 s and 348 s
LD50 at 168 h ([5]; iv, read-out: LD50 value (mg/kg body weight) Mouse i.v.): 344 mg/kg
LD50 at 168 h ([5]; po, read-out: LD50 value (mg/kg body weight) Mouse p.o.): > 10000 mg/kg
LD50 at 168 h [6]: > 10000 mg/kg
inhibition in vivo at 50 mg/kg ([7]; read-out: Inhibition, Anti-serum Dilution: × 12): 20.8%
inhibition in vivo at 50 mg/kg ([7]; read-out: Inhibition, Anti-serum Dilution: × 24): 23%
